Experimental data reported in US9050301B2, “Pharmaceutical composition for treatment of corneal endothelial wounds containing angiogenin” (Chung-Ang University Industry-Academy Cooperation Foundation, priority 2013, dated 2015).

Tests used:
Assay type in all cases: cell-based, human
Details in all cases: angiogenin 5 μg/ml
[1] = test system: Akt; assay: Western blot of angiogenin lower pathway, Akt
Procedure: (§1) The culture medium containing 5 μg/ml of angiogenin was treated with the cultured human corneal endothelial cells for 5 minutes, 10 minutes, 30 minutes, 1 hour, and 3 hours. Afterwards, according to the treatment times, expression aspects of Akt, eNOS, and Erk1/2 genes targeting the lower pathway of angiogenin were analyzed. First, a PRO-PREP™ protein extracting solution (Intron Biotechnology, Seongnam, Korea) was used to separate the total proteins from the corneal endothelial cells. The total proteins (30 μg/sample) were heat-treated at a temperature of about 100° C. for 5 minutes, and then, 10% sodiumdodecyl sulfate polyacrylamide (SDS-PAGE) gel was used to perform electrophoresis. The proteins separated according to molecular weights thereof were transferred to a polyvinylidene fluoride (PVDF) membrane, followed by being blocked by 5% BSA dissolved in 1× tris-buffered saline (TBS) at room temperature for 1 hour. […] The ECL western blotting detection reagent (Amersham Bioscience, Piscataway, USA) was used in terms of luminescence, and then, images were detected by using the same reagent for ChemiDoc™ XRS system (Bio-Rad, Hercules, USA).

[2] = test system: eNOS; assay: Western blot of angiogenin lower pathway, eNOS
Procedure: as §1

[3] = test system: Erk1/2; assay: Western blot of angiogenin lower pathway, Erk1/2
Procedure: as §1

Angiogenin: 14.4-kDa single chain protein of 123 amino acids, secreted protein capable of inducing angiogenesis
Time of maximal p-Akt expression after angiogenin treatment [1]: 10 min | Relative expression of phosphate (p-form/t-form) of Akt compared with the control group ([1]; 5 minutes to 3 hours): increased extent of relative expression of phosphate (p-form/t-form) | Time of maximal p-eNOS expression after angiogenin treatment [2]: 3 h | Relative expression of phosphate (p-form/t-form) of eNOS compared with the control group ([2]; 5 minutes to 3 hours): increased extent of relative expression of phosphate (p-form/t-form) | Time of maximal p-Erk1/2 expression after angiogenin treatment [3]: 30 min | Relative expression of phosphate (p-form/t-form) of Erk1/2 compared with the control group ([3]; 5 minutes to 3 hours): increased extent of relative expression of phosphate (p-form/t-form)
